These are literature values, as cited in US20160228385A1, “PURIFIED CBD AND CBDA, AND METHODS, COMPOSITIONS AND PRODUCTS EMPLOYING CBD OR CBDA” (COLORADO CAN LLC, priority 2015, published 2016).

The data set concerns human subjects seeking to quit smoking. The note with it: CBD administered via an inhaler, compared to no reduction with placebo inhaler.

Take `C=C(C)[C@@H]1CCC(C)=C[C@H]1c1c(O)cc(CCCCC)cc1O` [CBD, Cannabidiol]: the “reduction of cigarette use” value is reported as 40%.
